Among the test systems are EKVX NSCLC; HCT-116 colon; HL-60(TB) leukemia; HOP-62 NSCLC; IGROV1 ovarian; LOX IMVI melanoma; M14 melanoma; M19-MEL melanoma; NCI-H226 lung; NCI-H460 lung; OVCAR-4 ovarian; OVCAR-8 ovarian; SK-MEL-2 melanoma; SW-620 colon; UACC-257 melanoma; UO-31 renal; HOP-92 NSCLC; NCI/ADR-RES ovarian.
What all share (assay): NCI tumour cell line growth inhibition, 48 h

Experimental findings from PubChem BioAssay (NCI) are described below.

Structures are written as SMILES.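 96-well plates; 48 h exposure; 5 concentrations. Endpoints by linear interpolation between flanking doses. Not reached: highest tested concentration assigned. GI50 = concentration required for 50% inhibition of growth. Definition used: TGI = concentration required for complete inhibition of growth.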

In the case of `N=S(=O)(c1ccccc1)c1ccccc1`, the TGI in the assay with EKVX NSCLC, in the assay on HCT-116 colon, in the assay with HL-60(TB) leukemia, with HOP-62 NSCLC, with IGROV1 ovarian and with LOX IMVI melanoma was greater than 100 µM throughout. Besides, the TGI with M14 melanoma, in the assay on M19-MEL melanoma, with NCI-H226 lung, with NCI-H460 lung, in the assay with OVCAR-4 ovarian and with OVCAR-8 ovarian was greater than 100 µM in each case. The TGI in the assay with SK-MEL-2 melanoma, in the assay with SW-620 colon, in the assay on UACC-257 melanoma and in the assay with UO-31 renal was greater than 100 µM in each case.

On to `O=C(/C=C/c1ccc2c(c1)OCO2)NCCc1ccco1`, for which the TGI with EKVX NSCLC, in the assay on HCT-116 colon, in the assay with HOP-62 NSCLC, in the assay on HOP-92 NSCLC, in the assay with IGROV1 ovarian and in the assay on LOX IMVI melanoma was greater than 100 µM in each case. Also, the TGI in the assay with M14 melanoma, in the assay on NCI-H226 lung, with NCI-H460 lung, in the assay with NCI/ADR-RES ovarian, with OVCAR-4 ovarian and in the assay with OVCAR-8 ovarian was greater than 100 µM throughout. Moreover, the TGI with SK-MEL-2 melanoma, with SW-620 colon, in the assay with UACC-257 melanoma and with UO-31 renal was greater than 100 µM throughout.

On to `C[N+](C)(C)CCOC(=O)/C=C/c1cnc[nH]1`, for which the TGI with EKVX NSCLC, with HCT-116 colon, with HL-60(TB) leukemia, in the assay with HOP-62 NSCLC, in the assay on HOP-92 NSCLC and with IGROV1 ovarian was greater than 500 µM throughout. In addition, the TGI in the assay on LOX IMVI melanoma, with M19-MEL melanoma, in the assay on NCI-H226 lung, in the assay with NCI-H460 lung, with NCI/ADR-RES ovarian and with OVCAR-4 ovarian was greater than 500 µM in each case. The TGI with OVCAR-8 ovarian, in the assay with SK-MEL-2 melanoma, in the assay on SW-620 colon, in the assay on UACC-257 melanoma and in the assay on UO-31 renal was greater than 500 µM throughout.

Consider `COc1cccc2c1C(=O)c1c(O)c3c(c(O)c1C2=O)C[C@@](O)(C(=O)CN1CCOCC1)C[C@@H]3OC1CC(N)C(O)C(C)O1` (stereo partly specified), for which the TGI in the assay with EKVX NSCLC is 55.9 µM; in the assay with HCT-116 colon it was greater than 100 µM; in the assay on HL-60(TB) leukemia it was 5.19 µM; with HOP-62 NSCLC it was 14.2 µM; in the assay with HOP-92 NSCLC, 33.9 µM; in the assay with IGROV1 ovarian, greater than 90.6 µM. For the same molecule, the TGI in the assay with LOX IMVI melanoma is 45.3 µM; in the assay on M19-MEL melanoma, 18.1 µM; with NCI-H226 lung it was 8.78 µM; in the assay on NCI-H460 lung it was greater than 69.9 µM; with NCI/ADR-RES ovarian it was greater than 100 µM; in the assay with OVCAR-4 ovarian, 69.6 µM. The TGI in the assay on OVCAR-8 ovarian was 89.5 µM; in the assay on SK-MEL-2 melanoma, 22.7 µM; with SW-620 colon, greater than 78.7 µM; in the assay with UO-31 renal it was 59.6 µM. Besides, the GI50 was 5.27 µM in the assay on HOP-92 NSCLC and 11.3 µM in the assay on UACC-257 melanoma.

In the case of `O=C(O)CN1CCCC(Cc2c[nH]c3ccccc23)C1` (stereo unspecified), the TGI in the assay on EKVX NSCLC, in the assay on HOP-62 NSCLC, in the assay on HOP-92 NSCLC, with IGROV1 ovarian, with LOX IMVI melanoma and in the assay on M14 melanoma was greater than 100 µM each time. In addition, the TGI with NCI-H226 lung, with NCI/ADR-RES ovarian, in the assay with OVCAR-4 ovarian, with OVCAR-8 ovarian, in the assay on SK-MEL-2 melanoma and in the assay with SW-620 colon was greater than 100 µM in each case. The TGI in the assay on UACC-257 melanoma and in the assay with UO-31 renal was greater than 100 µM in each case.
